Experimental data published in patent US20200038513A1, “MODULATORS OF FAK PROTEOLYSIS AND ASSOCIATED METHODS OF USE” (ARVINAS OPERATIONS, INC., priority 2018, published 2020).
Like-named read-outs stand apart in the source and are kept apart here.

What was measured:
PPB = type: in vitro ADME; details: plasma
[1] = Pharmacokinetics of intraperitoneal or intravenous injection in CD1 mice; type: in vivo; details: for Conc. (ng/mL) Mouse 2 / Conc. (ng/mL) Mouse 1 / Conc. (ng/mL) Mouse 3 / concentration at 0.25 h / concentration at 0.5 h / concentration at 1 h / concentration at 2 h / concentration at 4 h / concentration at 8 h / concentration at 24 h / concentration at 0.033 h / concentration at 0.083 h: CD1 mice plasma; for concentration at 0.25 h / concentration at 0.5 h / concentration at 1 h / concentration at 2 h / concentration at 4 h / concentration at 8 h / concentration at 24 h / AUC(0-t) / half-life / concentration at 0.033 h / concentration at 0.083 h: male, CD1, mouse, plasma
Description: The pharmacokinetics of exemplary compounds 103, 107, 100, 101, and 102 was examined for intraperitoneal and intravenous administration. The desired serial concentrations of working solutions were achieved by diluting stock solution (1 mg/mL in DMSO) of analyte with methanol. In particular, 20 μL of working solutions (1, 2, 5, 10, 50, 100, 500, 1000, 2000 ng/mL) were added to 20 μL of the blank CD1 mice plasma to achieve calibration standards of 1-2000 ng/mL (1, 2, 5, 10, 50, 100, 500, 1000, 2000 ng/mL) in a total volume of 40 μL. Dose of IV and IP were diluted by 1000 fold and 10000 with methanol, 20 μL of the diluted dose solutions were added to 20 μL of the blank CD1 mice plasma to achieve dose samples. Next, 40 μL standards and 40 μL dose samples were added to 20 μL of IS (100 ng/mL) and 200 μL of acetonitrile for precipitating protein respectively. Then the samples were vortexed for 30 seconds. After centrifugation at 4 degree Celsius, 4000 rpm for 15 minutes, the supernatant was diluted 3 times with water. 10 μL of the diluted supernatant was injected into the LC/MS/MS system for quantitative analysis.
Exemplary compounds 103, 107, 100, 101, and 102 were administered intravenously (5 second injection of 10% HP-b-CD and 40 mM sodium acetate and 40 mM NaCl in water, pH4.5) or intraperitoneally (5% EtOH and 5% Solutol HS15 in D5W(ESD-2)) to 6-8 week old male CD1 mice (3 mice per treatment group for a total of 12 mice) at the time points indicated below in Table 7. The mice had free access to food and water.
Dorsal metatarsal vein samples (30 μL), except that the final sample was acquired via a heart puncture, were taken from the mice at the same the administration time points as shown in Table 7.

[2] = ip, 10 mg/kg, IP 10 mg/kg, read-out: Conc. (ng/mL) Mouse 1
[3] = ip, 10 mg/kg, IP 10 mg/kg, read-out: Conc. (ng/mL) Mouse 2
[4] = ip, 10 mg/kg, IP 10 mg/kg, read-out: Conc. (ng/mL) Mouse 3
[5] = ip, 10 mg/kg, IP 10 mg/kg, read-out: Mean
[6] = iv, 1 mg/kg, IV 1.0 mg/kg, read-out: Conc. (ng/mL) Mouse 1
[7] = iv, 1 mg/kg, IV 1.0 mg/kg, read-out: Conc. (ng/mL) Mouse 2
[8] = iv, 1 mg/kg, IV 1.0 mg/kg, read-out: Conc. (ng/mL) Mouse 3
[9] = iv, 1 mg/kg, IV 1.0 mg/kg, read-out: Mean

In the case of `Cc1ncsc1-c1ccc(CNC(=O)[C@@H]2C[C@@H](O)CN2C(=O)[C@@H](NC(=O)COCCOc2ccc(Nc3ncc(C(F)(F)F)c(NCc4cccc(N(C)S(C)(=O)=O)c4)n3)cc2)C(C)(C)C)cc1` [Compound 100, (2S,4R)-1-((S)-3,3-dimethyl-2-(2-(2-(4-((4-((3-(N-methylmethylsulfonamido)benzyl)amino)-5-(trifluoromethyl)pyrimidin-2-yl)amino)phenoxy)ethoxy)acetamido)butanoyl)-4-hydroxy-N-(4-(4-methylthiazol-5-yl)benzyl)pyrrolidine-2-carboxamide], the fraction unbound (PPB) is reported as 0.008, the “Conc. (ng/mL) Mouse 2” value ([1]; IP 10 mg/kg, 24 h) is reported as “BLOQ” and the “Conc. (ng/mL) Mouse 1” value ([1]; IV 1.0 mg/kg, 8 h) is reported as “BLOQ”. For the same compound, the “Conc. (ng/mL) Mouse 2” value ([1]; IV 1.0 mg/kg, 8 h) was “BLOQ”, the “Conc. (ng/mL) Mouse 3” value ([1]; IV 1.0 mg/kg, 8 h) was “BLOQ” and the “Conc. (ng/mL) Mouse 1” value ([1]; IV 1.0 mg/kg, 24 h) was “BLOQ”. The “Conc. (ng/mL) Mouse 2” value ([1]; IV 1.0 mg/kg, 24 h) was “BLOQ”, the “Conc. (ng/mL) Mouse 3” value ([1]; IV 1.0 mg/kg, 24 h) was “BLOQ” and the concentration at 0.25 h [1, 2] was 252 ng/mL. It also gave a concentration at 0.25 h [1, 3] of 402 ng/mL, a concentration at 0.25 h [1, 4] of 374 ng/mL and a concentration at 0.25 h [1, 5] of 343 ng/mL. For the same compound, the concentration at 0.5 h [1, 2] was 362 ng/mL, the concentration at 0.5 h [1, 3] was 467 ng/mL and the concentration at 0.5 h [1, 4] was 373 ng/mL. The concentration at 0.5 h [1, 5] was 401 ng/mL, the concentration at 1 h [1, 2] was 648 ng/mL and the concentration at 1 h [1, 3] was 1550 ng/mL. For the same compound, the concentration at 1 h [1, 4] was 2480 ng/mL, the concentration at 1 h [1, 5] was 1560 ng/mL and the concentration at 2 h [1, 2] was 764 ng/mL. For the same compound, the concentration at 2 h [1, 3] was 1750 ng/mL, the concentration at 2 h [1, 4] was 1610 ng/mL and the concentration at 2 h [1, 5] was 1380 ng/mL. The concentration at 4 h [1, 2] was 362 ng/mL, the concentration at 4 h [1, 3] was 625 ng/mL and the concentration at 4 h [1, 4] was 510 ng/mL. The concentration at 4 h [1, 5] was 499 ng/mL, the concentration at 8 h ([1]; ip, 10 mg/kg, IP 10 mg/kg, 8 h, read-out: Conc. (ng/mL) Mouse 1) was 95.4 ng/mL and the concentration at 8 h ([1]; ip, 10 mg/kg, IP 10 mg/kg, 8 h, read-out: Conc. (ng/mL) Mouse 2) was 111 ng/mL. It also gave a concentration at 8 h ([1]; ip, 10 mg/kg, IP 10 mg/kg, 8 h, read-out: Conc. (ng/mL) Mouse 3) of 151 ng/mL, a concentration at 8 h ([1]; ip, 10 mg/kg, IP 10 mg/kg, 8 h, read-out: Mean) of 119 ng/mL and a concentration at 24 h ([1]; ip, 10 mg/kg, IP 10 mg/kg, 24 h, read-out: Conc. (ng/mL) Mouse 1) of 1.35 ng/mL. It also gave a concentration at 24 h ([1]; ip, 10 mg/kg, IP 10 mg/kg, 24 h, read-out: Conc. (ng/mL) Mouse 3) of 1.56 ng/mL, a concentration at 24 h ([1]; ip, 10 mg/kg, IP 10 mg/kg, 24 h, read-out: Mean) of 1.46 ng/mL and an AUC(0-t) ([1]; ip, 10 mg/kg, read-out: AUClast (h * ng/mL) IP) of 5870 ng·h/mL. For the same compound, the half-life ([1]; ip, 10 mg/kg, read-out: T ½ (h) IP (converted)) was 2.15 h, the concentration at 0.033 h [1, 6] was 1320 ng/mL and the concentration at 0.033 h [1, 7] was 1390 ng/mL. It also gave a concentration at 0.033 h [1, 8] of 1150 ng/mL, a concentration at 0.033 h [1, 9] of 1290 ng/mL and a concentration at 0.083 h [1, 6] of 233 ng/mL. For the same compound, the concentration at 0.083 h [1, 7] was 313 ng/mL, the concentration at 0.083 h [1, 8] was 205 ng/mL and the concentration at 0.083 h [1, 9] was 250 ng/mL. It also gave a concentration at 0.25 h [1, 6] of 34.7 ng/mL, a concentration at 0.25 h [1, 7] of 48.2 ng/mL and a concentration at 0.25 h [1, 8] of 36.4 ng/mL. The concentration at 0.25 h [1, 9] was 39.8 ng/mL, the concentration at 0.5 h [1, 6] was 17.4 ng/mL and the concentration at 0.5 h [1, 7] was 27.1 ng/mL. It also gave a concentration at 0.5 h [1, 8] of 18 ng/mL, a concentration at 0.5 h [1, 9] of 20.8 ng/mL and a concentration at 1 h [1, 6] of 6.22 ng/mL. For the same compound, the concentration at 1 h [1, 7] was 9.77 ng/mL, the concentration at 1 h [1, 8] was 8.79 ng/mL and the concentration at 1 h [1, 9] was 8.26 ng/mL. It also gave a concentration at 2 h [1, 6] of 3.27 ng/mL, a concentration at 2 h [1, 7] of 5.86 ng/mL and a concentration at 2 h [1, 8] of 3.98 ng/mL. It also gave a concentration at 2 h [1, 9] of 4.37 ng/mL, a concentration at 4 h [1, 6] of 1.84 ng/mL and a concentration at 4 h [1, 7] of 4.11 ng/mL. It also gave a concentration at 4 h [1, 8] of 2.13 ng/mL, a concentration at 4 h [1, 9] of 2.69 ng/mL and an AUC(0-t) ([1]; iv, 1 mg/kg, read-out: AUClast (h * ng/mL) IV) of 175 ng·h/mL. For the same compound, the half-life ([1]; iv, 1 mg/kg, read-out: T ½ (h) IV (converted)) was 1.95 h.
